Measured values as given in patent US20080057055A1, “OLD-35 as an inflammatory agent” (priority 2004, published 2008).

Assays:
Format in all cases: cell-based, human
[1] = system: HO-1, WM-35, MeWo and FM-516 cells; experiment: Cell cycle analysis by flow cytometry after IFN-β; conditions: HO-1 clones, IFN-β 1000 U/ml
Experimental: Cell Cycle Analysis: Cells were harvested, washed in PBS and fixed overnight at −20° C. in 70% ethanol. The cells were treated with RNase A (1 mg/ml) at 37° C. for 30 min and then with propidium iodide (50 μg/ml). Cell cycle was analyzed using a FACScan flow cytometer and data were analyzed using CellQuest software (Becton Dickinson, San Jose, Calif.).

HO-1 cells [2] = experiment: MTT cell viability assay; conditions: HO-1 clones, more pronounced after 6 days
Experimental: (§1) Transfection of siRNA: Cells (5×10^5) were plated in a 6 cm dish and the next day were transfected with 25 nM of either control siRNA or c-myc siRNA (Ambion; catalogue# 4250) using Lipofectamine 2000 (Invitrogen) according to the Manufacturer's protocol. After 24 h, the cells were trypsinized and seeded into 96-well plates for cell viability assays and 6-cm dishes for colony formation assays and cell cycle analyses as described above.

[3] = system: hPNPase^OLD-35 and Myc proteins; experiment: Western blot after IFN-β treatment or siRNA
c-myc mRNA = experiment: Half-life of c-myc mRNA (Actinomycin D, Northern blot); conditions: HO-1 clones expressing the siRNA, compared to control untreated cells
Experimental: RNA Isolation and Northern Blot Analysis: Total RNA was extracted from cells using Qiagen RNeasy mini kit (Qiagen) according to the manufacturer's protocol and Northern blotting was performed as described (102). The cDNA probes used were a 400-bp fragment from human c-myc, a 500-bp fragment from hPNPase^old-35 and full-length human GAPDH.

HO-1 cells [4] = experiment: Colony formation assay with IFN-β; conditions: HO-1 clones
Experimental: as §1

hPNPase^old-35-siRNA: lentivirus-expressed siRNA for hPNPase^old-35, sequence 5′ AACAAAACCTTCCCCTTCCCA 3′ (SEQ ID NO:40)
response of siRNA expressing clones to growth inhibition by IFN-β (cell cycle) [1]: remarkable resistance | response of siRNA expressing clones to IFN-β (MTT) (HO-1 cells [2]): significant resistance | inhibition in hPNPase^OLD-35 induction by IFN-β ([3]; HO-1 clone 1 expressing the siRNA, IFN-β 1000 U/ml, 2 days): ~100% | ability to downregulate Myc in response to IFN-β ([3]; HO-1 clones 1, 4 and 5 expressing the siRNA): lost this ability | half-life of c-myc mRNA after IFN-β (c-myc mRNA): remained unchanged | response of siRNA expressing clones to IFN-β-induced inhibition of colony formation (HO-1 cells [4]): significant resistance
